Test results from PubChem BioAssay (NCI).
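1) Cells in 96-well plates. 2) Compound, 48 h, 5 concentrations. 3) Linear interpolation between surrounding doses. 4) Unreached endpoint = highest concentration. The concentration for full growth arrest is given as TGI.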

How the values were obtained:
Test in all cases: NCI anticancer screen, dose series, 48 h
786-0 renal = test system: 786-0 renal
A498 renal = test system: A498 renal
A549 NSCLC = test system: A549 NSCLC
ACHN renal = test system: ACHN renal
BT-549 breast = test system: BT-549 breast
CAKI-1 renal = test system: CAKI-1 renal
CCRF-CEM leukemia = test system: CCRF-CEM leukemia
COLO 205 colon = test system: COLO 205 colon
DU-145 prostate = test system: DU-145 prostate
EKVX NSCLC = test system: EKVX NSCLC
HCC-2998 colon = test system: HCC-2998 colon
HCT-116 colon = test system: HCT-116 colon
HCT-15 colon = test system: HCT-15 colon
HL-60(TB) leukemia = test system: HL-60(TB) leukemia
HOP-62 NSCLC = test system: HOP-62 NSCLC
HOP-92 NSCLC = test system: HOP-92 NSCLC
HS 578T breast = test system: HS 578T breast
HT29 colon = test system: HT29 colon
IGROV1 ovarian = test system: IGROV1 ovarian
K-562 leukemia = test system: K-562 leukemia
KM12 colon = test system: KM12 colon
LOX IMVI melanoma = test system: LOX IMVI melanoma
M14 melanoma = test system: M14 melanoma
MCF7 breast = test system: MCF7 breast
MDA-MB-231 breast = test system: MDA-MB-231 breast
MDA-MB-435 = test system: MDA-MB-435
MDA-N = test system: MDA-N
MOLT-4 leukemia = test system: MOLT-4 leukemia
NCI-H226 lung = test system: NCI-H226 lung
NCI-H23 lung = test system: NCI-H23 lung
NCI-H460 lung = test system: NCI-H460 lung
NCI-H522 lung = test system: NCI-H522 lung
NCI/ADR-RES ovarian = test system: NCI/ADR-RES ovarian
OVCAR-3 ovarian = test system: OVCAR-3 ovarian
OVCAR-4 ovarian = test system: OVCAR-4 ovarian
OVCAR-5 ovarian = test system: OVCAR-5 ovarian
OVCAR-8 ovarian = test system: OVCAR-8 ovarian
PC-3 prostate = test system: PC-3 prostate
RPMI-8226 leukemia = test system: RPMI-8226 leukemia
RXF 393 renal = test system: RXF 393 renal
SF-268 CNS = test system: SF-268 CNS
SF-295 CNS = test system: SF-295 CNS
SF-539 CNS = test system: SF-539 CNS
SK-MEL-2 melanoma = test system: SK-MEL-2 melanoma
SK-MEL-28 melanoma = test system: SK-MEL-28 melanoma
SK-MEL-5 melanoma = test system: SK-MEL-5 melanoma
SK-OV-3 ovarian = test system: SK-OV-3 ovarian
SN12C renal = test system: SN12C renal
SNB-19 CNS = test system: SNB-19 CNS
SNB-75 CNS = test system: SNB-75 CNS
SR leukemia = test system: SR leukemia
SW-620 colon = test system: SW-620 colon
T-47D breast = test system: T-47D breast
TK-10 renal = test system: TK-10 renal
U251 CNS = test system: U251 CNS
UACC-257 melanoma = test system: UACC-257 melanoma
UACC-62 melanoma = test system: UACC-62 melanoma
UO-31 renal = test system: UO-31 renal
MALME-3M melanoma = test system: MALME-3M melanoma

O=C(/C=C\c1ccsc1)c1ccccc1
TGI (786-0 renal): 19.7 µM | TGI (A498 renal): 15.5 µM | TGI (A549 NSCLC): 8.48 µM | TGI (ACHN renal): 21.1 µM | TGI (BT-549 breast): 26.2 µM | TGI (CAKI-1 renal): 8.12 µM | TGI (CCRF-CEM leukemia): 3.41 µM | TGI (COLO 205 colon): 30.5 µM | TGI (DU-145 prostate): 25.4 µM | TGI (EKVX NSCLC): 27.7 µM | TGI (HCC-2998 colon): 24.3 µM | TGI (HCT-116 colon): 14.5 µM | TGI (HCT-15 colon): 14.6 µM | TGI (HL-60(TB) leukemia): 4.16 µM | TGI (HOP-62 NSCLC): 30.7 µM | TGI (HOP-92 NSCLC): 41.4 µM | TGI (HS 578T breast): 20.4 µM | TGI (HT29 colon): 15.5 µM | TGI (IGROV1 ovarian): 22.2 µM | TGI (K-562 leukemia): > 70.6 µM | TGI (KM12 colon): 8.5 µM | TGI (LOX IMVI melanoma): 7.58 µM | TGI (M14 melanoma): 21.8 µM | TGI (MCF7 breast): 6.72 µM | TGI (MDA-MB-231 breast): 18.5 µM | TGI (MDA-MB-435): 23.1 µM | TGI (MDA-N): 25.8 µM | TGI (MOLT-4 leukemia): > 100 µM | TGI (NCI-H226 lung): 34.1 µM | TGI (NCI-H23 lung): 15.6 µM | TGI (NCI-H460 lung): 25.2 µM | TGI (NCI-H522 lung): 4.34 µM | TGI (NCI/ADR-RES ovarian): 32.4 µM | TGI (OVCAR-3 ovarian): 27.9 µM | TGI (OVCAR-4 ovarian): 16.4 µM | TGI (OVCAR-5 ovarian): 32.4 µM | TGI (OVCAR-8 ovarian): 27.2 µM | TGI (PC-3 prostate): 24.1 µM | TGI (RPMI-8226 leukemia): 7.32 µM | TGI (RXF 393 renal): 18.7 µM | TGI (SF-268 CNS): 21.8 µM | TGI (SF-295 CNS): 29.3 µM | TGI (SF-539 CNS): 24.2 µM | TGI (SK-MEL-2 melanoma): 34.4 µM | TGI (SK-MEL-28 melanoma): 24.9 µM | TGI (SK-MEL-5 melanoma): 27.3 µM | TGI (SK-OV-3 ovarian): 30.8 µM | TGI (SN12C renal): 24.6 µM | TGI (SNB-19 CNS): 25.9 µM | TGI (SNB-75 CNS): 24.3 µM | TGI (SR leukemia): > 21.7 µM | TGI (SW-620 colon): 12.3 µM | TGI (T-47D breast): 19.7 µM | TGI (TK-10 renal): 29.3 µM | TGI (U251 CNS): 15.3 µM | TGI (UACC-257 melanoma): 34.8 µM | TGI (UACC-62 melanoma): 24.6 µM | TGI (UO-31 renal): 19.2 µM

COc1ccc(OC)c(N=Cc2cc(OC)c(OC)c(OC)c2)c1
TGI (786-0 renal): > 100 µM | TGI (A498 renal): > 100 µM | TGI (A549 NSCLC): > 100 µM | TGI (ACHN renal): > 100 µM | TGI (BT-549 breast): > 100 µM | TGI (CAKI-1 renal): > 100 µM | TGI (CCRF-CEM leukemia): 66.4 µM | TGI (COLO 205 colon): > 100 µM | TGI (DU-145 prostate): > 100 µM | TGI (EKVX NSCLC): > 100 µM | TGI (HCC-2998 colon): > 100 µM | TGI (HCT-116 colon): > 100 µM | TGI (HCT-15 colon): > 100 µM | TGI (HL-60(TB) leukemia): > 100 µM | TGI (HOP-62 NSCLC): > 100 µM | TGI (HOP-92 NSCLC): > 78 µM | TGI (HS 578T breast): > 100 µM | TGI (HT29 colon): > 100 µM | TGI (IGROV1 ovarian): > 100 µM | TGI (K-562 leukemia): > 100 µM | TGI (KM12 colon): > 100 µM | TGI (LOX IMVI melanoma): > 100 µM | TGI (M14 melanoma): > 100 µM | TGI (MALME-3M melanoma): > 100 µM | TGI (MCF7 breast): > 100 µM | TGI (MDA-MB-231 breast): > 100 µM | TGI (MDA-MB-435): > 76.2 µM | TGI (MDA-N): > 100 µM | TGI (MOLT-4 leukemia): > 100 µM | TGI (NCI-H226 lung): > 100 µM | TGI (NCI-H23 lung): > 100 µM | TGI (NCI-H460 lung): > 100 µM | TGI (NCI-H522 lung): 57.7 µM | TGI (NCI/ADR-RES ovarian): > 100 µM | TGI (OVCAR-3 ovarian): > 40.3 µM | TGI (OVCAR-4 ovarian): > 100 µM | TGI (OVCAR-5 ovarian): > 100 µM | TGI (OVCAR-8 ovarian): > 100 µM | TGI (PC-3 prostate): > 100 µM | TGI (RPMI-8226 leukemia): > 76.6 µM | TGI (RXF 393 renal): > 100 µM | TGI (SF-268 CNS): > 100 µM | TGI (SF-295 CNS): > 100 µM | TGI (SF-539 CNS): > 100 µM | TGI (SK-MEL-2 melanoma): > 100 µM | TGI (SK-MEL-28 melanoma): > 100 µM | TGI (SK-MEL-5 melanoma): > 100 µM | TGI (SK-OV-3 ovarian): > 100 µM | TGI (SN12C renal): > 100 µM | TGI (SNB-19 CNS): > 100 µM | TGI (SNB-75 CNS): > 100 µM | TGI (SR leukemia): > 100 µM | TGI (SW-620 colon): > 100 µM | TGI (T-47D breast): > 100 µM | TGI (TK-10 renal): > 100 µM | TGI (U251 CNS): > 100 µM | TGI (UACC-257 melanoma): > 100 µM | TGI (UACC-62 melanoma): > 100 µM | TGI (UO-31 renal): > 100 µM
